The values that follow come from US20070154393A1, “Bioassay for volatile low molecular weight insecticides and methods of use” (priority 2005, published 2007).

In series [1] the test system is insecticide-susceptible Drosophila melanogaster (Canton-S strain). It is filed as in vivo. As to conditions: in vivo. The protocol: The insecticide-susceptible Canton-S strain of Drosophila was obtained from the Bloomington Drosophila stock center (Indiana University, Bloomington, Ind.), and used exclusively in all studies. Flies were reared in 100-ml vials capped with acetate plugs (Fisher Scientific; Suwannee, Ga.) on a JAZZ-MIX diet (Fisher) prepared with a 2:1 ratio of water to apple juice. Flies were reared on a 12:12 photocycle at 24° C. and ambient relative humidity. Mixed-sex adults, less than 1-wk old, were used in bioassays.
Flies were briefly anesthetized in rearing vials with a pulse of CO2 and transferred to a CO2 flowbed (Genesee Scientific; San Diego, Calif.). Using a camel hair brush and a 5×5 cm sheet of rice paper, ten flies were placed into 7.0 ml dram vials. Prior to adding flies, each vial received a 0.5 cm^3 block of rearing diet that had been sufficiently dried on a paper towel to remove excessive moisture. The vials were then capped with open-top septum caps (Fisher) that were covered with fine mesh. The mesh was applied to the septum caps in advance using hot glue; it prevented fly escape but readily permitted gas exchange. The flies were allowed 1-hr to recover from the CO2 anesthesia. After one hour, single vials with flies were placed into 0.5 L glass jars, along with a filter paper tent (see FIG. 1). In a fume hood, filter paper tents were treated with insecticide dilutions or acetone for controls. The jars were then rapidly closed tightly with a metal lid. After 24 hours of exposure, mortality was scored with the aid of a magnifying glass.
All test compounds and solvents were >99% purity, and were purchased from Sigma-Aldrich Chemical (Milwaukee, Wis.). See Table 1 for a listing of the test compounds and their structures. Insecticide stock solutions were prepared at a standard concentration of 100 μg/μl in analytical grade acetone. For liquid insecticidal compounds, density in mg/μl was used to calculate weight on a per-volume basis. Stock solutions were held at −20° C. in sealed amber vials. In bioassay jars, filter paper tents were treated with stock volumes ranging from 2 to 20 μl, depending on the inherent toxicity of the test compound. These volumes of insecticide stock provided test concentrations of 200 to 2000 μg insecticide per replicate jar. A range of 4-5 concentrations plus a control were tested for each insecticide, and each range was repeated five times over at least three days. Controls received a volume of acetone identical to the highest insecticide volume that was tested (i.e., 10 μl for menthofuran; 20 μl for all other insecticides). Between uses, bioassay jars and lids were washed in a dishwasher, then baked 12-16 hr at 90° C. in a drying oven.
Probit and regression analyses were performed using the PROC PROBIT and PROC REG procedures, respectively. […] If control mortality ever exceeded 10% in a given replicate, that replicate was discarded.
(§1) Four Drosophila strains were used, all obtained from the Bloomington Drosophila Stock Center (Indiana University; Bloomington, Ind.). The Canton-S strain was used as the insecticide-susceptible standard. The Hikone-R strain is metabolically-resistant with elevated cytochrome P450 levels (Waters et al., 1984; Sundseth et al., 1989; Le Goff et al., 2003; Festucci-Buselli et al., 2005). Hikone-R is resistant to a number of insecticides, including malathion, DDT and neonicotinoids (Sundseth et al., 1989; Daborn et al., 2001). Two resistant neurological-mutant strains were also tested. […] Flies were reared in 100-ml vials capped with acetate plugs (Fisher Scientific; Suwanee, Ga.) on a commercial diet (JAZZ-MIX; Fisher Scientific). Flies were reared on a 12:12 photocycle at 24° C. and 60% relative humidity. Mixed-sex adults, less than 1-wk old, were used in bioassays.

Series [2] concerns metabolically-resistant Hikone-R strain of Drosophila (elevated cytochrome P450). Format: in vivo. The protocol: (§2) Four Drosophila strains were used, all obtained from the Bloomington Drosophila Stock Center (Indiana University; Bloomington, Ind.). The Canton-S strain was used as the insecticide-susceptible standard. […] Two resistant neurological-mutant strains were also tested. […] Flies were reared in 100-ml vials capped with acetate plugs (Fisher Scientific; Suwanee, Ga.) on a commercial diet (JAZZ-MIX; Fisher Scientific). […] Mixed-sex adults, less than 1-wk old, were used in bioassays.
(§3) All volatile insecticide stocks were prepared at 100 μg/μl in analytical grade acetone. Rather than weigh the highly volatile liquid insecticides (i.e., all compounds except benzothiophene), weight was determined based on the density-volume relationship of each compound. […] The insecticide synergists PBO (piperonyl butoxide) and DEF (SSS-tributyl-phosphoro-trithioate) were obtained from Fluka Chemical Co. (Basel, Switzerland) and Mobay Chemical Co. (Kansas City, Mo.). […] Synergist stocks were prepared at 100 μg/ml in analytical grade acetone.
(§4) Briefly, bioassays took place in 0.5-l glass jars with metal lids. Mixed-sex flies were isolated from lab colonies and placed in 4-ml dram vials in groups of ten, along with a dried piece of laboratory diet. The dram vials were capped with open-top septum caps that were covered with fine mesh (held in place by non-toxic glue). For bioassays, the assembled dram vials were placed into the 0.5-l jars along with a folded filter paper “tent” (Whatman #1; Vineland, N.J.). The filter paper was treated with either an insecticide dilution or acetone, the jar was sealed with the metal lid, and the bioassay proceeded for 24-hr at room temperature. Mortality was scored based on a complete lack of movement by the flies. Four concentrations plus an acetone control were tested for all insecticides. Between five and ten replicates were performed for each concentration range on each strain-insecticide combination. Synergist bioassays were performed with a slight modification. Synergist stocks were applied to dram vials at 100 μl per vial to provide assay concentrations of 10 μg per vial. […] After treatment, vials were held at an angle in a fume hood and rotated ¼-turn each minute until the acetone evaporated. Flies and diet were added as above and held for 1-hr. Assays were initiated, run, and scored as above.
(§5) Probit analysis was performed using PROC PROBIT in the SAS software package (SAS Institute; Cary, N.C.). If control mortality ever exceeded 10% in a given replicate, that replicate was discarded.

Series [3] concerns para-ts1 (para-R) strain of Drosophila (sodium channel point mutation). Format: in vivo. Particulars: significance at p<0.05, method of Robertson and Preisler. The protocol:
as §2, §3, §4, §5

Series [4] deals with Rd1 (Rdl-R) strain of Drosophila (GABA-gated chloride channel point mutation). It is filed as in vivo, Drosophila melanogaster.
Text: as §1
(§6) All experimental materials were purchased from Sigma-Aldrich-Fluka (Milwaukee, Wis.) and were of 99% purity or greater. […] All volatile insecticide stocks were prepared at 100 μg/μl in analytical grade acetone. Rather than weigh the highly volatile liquid insecticides (i.e., all compounds except benzothiophene), weight was determined based on the density-volume relationship of each compound. Four serial dilutions were prepared and tested for each insecticide as described previously (Scharf et al., 2006). The insecticide synergists PBO (piperonyl butoxide) and DEF (SSS-tributyl-phosphoro-trithioate) were obtained from Fluka Chemical Co. (Basel, Switzerland) and Mobay Chemical Co. (Kansas City, Mo.). Both synergists were >95% purity. Synergist stocks were prepared at 100 μg/ml in analytical grade acetone.
(§7) Volatility bioassays were conducted exactly as described in a previous report (Scharf et al., 2006). Briefly, bioassays took place in 0.5-l glass jars with metal lids. Mixed-sex flies were isolated from lab colonies and placed in 4-ml dram vials in groups of ten, along with a dried piece of laboratory diet. The dram vials were capped with open-top septum caps that were covered with fine mesh (held in place by non-toxic glue). For bioassays, the assembled dram vials were placed into the 0.5-l jars along with a folded filter paper “tent” (Whatman #1; Vineland, N.J.). The filter paper was treated with either an insecticide dilution or acetone, the jar was sealed with the metal lid, and the bioassay proceeded for 24-hr at room temperature. Mortality was scored based on a complete lack of movement by the flies. Four concentrations plus an acetone control were tested for all insecticides. Between five and ten replicates were performed for each concentration range on each strain-insecticide combination. Synergist bioassays were performed with a slight modification. Synergist stocks were applied to dram vials at 100 μl per vial to provide assay concentrations of 10 μg per vial. […] After treatment, vials were held at an angle in a fume hood and rotated ¼-turn each minute until the acetone evaporated. Flies and diet were added as above and held for 1-hr. Assays were initiated, run, and scored as above.
(§8) Probit analysis was performed using PROC PROBIT in the SAS software package (SAS Institute; Cary, N.C.). If control mortality ever exceeded 10% in a given replicate, that replicate was discarded. Toxicity and synergist ratios at LC50 were compared statistically using the calculation described by Robertson and Preisler (1992). Using this procedure, ratios with 95% confidence intervals were calculated using a spreadsheet-based program. With this calculation, if confidence intervals include 1.0 then ratios are considered non-significant (p>0.05; Robertson and Preisler, 1992).

Series [5] deals with insecticide-susceptible Canton-S strain of Drosophila. Format: in vivo. The protocol: as §6, §7, §8
The test system of series [6] is metabolically resistant Hikone-R strain of Drosophila. Format: in vivo. As to conditions: Hikone, FIG. 6. The protocol:
as §6, §7, §8

[7] abbreviates: Table 3, Hikone-R, no synergist, 24 hr.
The mark [8] stands for this setting: significance at p<0.05, method of Robertson and Preisler.

Entries after “also recorded” stand apart in the source; their conditions may differ. Counter-ions that a name gives are not always drawn. Like-named read-outs stand apart in the source and are kept apart here. A value given as a limit tells only on which side of the number the result lay.

On to `CC(C)(C)OC=O` [t-Butyl Formate, tert-butyl formate], for which, in series [1], the “LC50 (95% CL)” value was 1981.0 (1917.0 − 2048.4) μg/jar. Besides, the “Slope ± Std. Error (probit mortality line)” value (from here on “Slope ± Std. Error”) in series [2] (Table 2, Hikone-R, 24 hr) was determined as 44.70; in series [2] (setting [7]), 44.70. The “response of Hikone-R relative to Canton-S (LC50 ratio Hikone÷Canton, FIG. 5), in words” value in series [2] (setting [8]) is listed as “non-significant tolerance”. Moreover, in series [3], the “response of para-ts1 relative to Canton-S (LC50 ratio, FIG. 7B), in words” value is listed as “elevated tolerance; also recorded: significant tolerance”. For the same compound, the “response of Rd1 relative to Canton-S (LC50 ratio, FIG. 7A), in words” value in series [4] (in vivo) is “significant resistance; also recorded: significant tolerance”.

In the case of `CCCCOC=O` [Butyl Formate, butyl formate], in series [2] (in vivo), the LC50 is 1570.0 μg insecticide per 0.5 liter of headspace and the “Slope ± Std. Error” value was 8.82 ± 2.00. Besides, in series [3], the “response of para-ts1 relative to Canton-S (LC50 ratio, FIG. 7B), in words” value is given as “non-significant tolerance”. Also, in series [4] (in vivo), the LC50 was 1246.0 μg insecticide per 0.5 liter of headspace. In series [4] (setting [8]), the “response of Rd1 relative to Canton-S (LC50 ratio, FIG. 7A), in words” value was “non-significant tolerance”.

For `CCCCCCCOC=O` [Heptyl Formate, heptyl formate], the LC50 in series [2] (in vivo) is 1483.0 μg insecticide per 0.5 liter of headspace; in series [4] (in vivo), 1656.6 μg insecticide per 0.5 liter of headspace. Also, the “response of Hikone-R relative to Canton-S (LC50 ratio Hikone÷Canton, FIG. 5), in words” value in series [2] (in vivo) is “non-significant tolerance”. Moreover, in series [4] (setting [8]), the “response of Rd1 relative to Canton-S (LC50 ratio, FIG. 7A), in words” value is recorded as “non-significant tolerance”.

For `Cc1coc2c1CC[C@H](C)C2` [Menthofuran, menthofuran], the “Slope ± Std. Error” value in series [2] (Table 2, Hikone-R, 24 hr) was determined as 4.12 ± 0.45; in series [2] (setting [7]), 4.12 ± 0.45. Further, the “response of Hikone-R relative to Canton-S (LC50 ratio Hikone÷Canton, FIG. 5), in words” value in series [2] (significance at p<0.05, method of Robertson and Preisler, listed as mentho-) is “significantly enhanced susceptibility”; in series [2] (significance at p<0.05, method of Robertson and Preisler, listed as menthofuran), “significantly more susceptible; also recorded: greater susceptibility; also recorded: enhanced susceptibility”. Moreover, the “response of para-ts1 relative to Canton-S (LC50 ratio, FIG. 7B), in words” value in series [3] is listed as “enhanced susceptibility”. In addition, the “response of Rd1 relative to Canton-S (LC50 ratio, FIG. 7A), in words” value in series [4] (in vivo) is reported as “significantly enhanced susceptibility”. Also, in series [5] ('levels on the same scale' as MITC and DDVP), the “efficacy level when mixed with the P450 inhibitor PBO” value is < 100 µg/L. Also, the “effect of PBO treatment on toxicity, in words” value is on record as “increased menthofuran toxicity” in series [5] (Canton-S, FIG. 6) and “no effects” in series [6].

Consider `c1ccc2sccc2c1` [Benzothiophene, benzothiophene], for which the “Slope ± Std. Error” value in series [2] (Table 2, Hikone-R, 24 hr) came out at 4.42 ± 0.46; in series [2] (setting [7]), 4.42 ± 0.46. Moreover, the “response of Hikone-R relative to Canton-S (LC50 ratio Hikone÷Canton, FIG. 5), in words” value in series [2] (setting [8]) is recorded as “significantly enhanced susceptibility; also recorded: greater susceptibility”. Moreover, the “response of para-ts1 relative to Canton-S (LC50 ratio, FIG. 7B), in words” value in series [3] is “enhanced susceptibility”. Also, in series [4] (in vivo), the “response of Rd1 relative to Canton-S (LC50 ratio, FIG. 7A), in words” value is on record as “significantly enhanced susceptibility”.

Consider `CCCCCCOC=O` [Hexyl Formate, hexyl formate], for which the “Slope ± Std. Error” value was 3.26 ± 0.65 in series [2] (Table 2, Hikone-R, 24 hr) and 3.26 ± 0.65 in series [2] (setting [7]). The “response of Hikone-R relative to Canton-S (LC50 ratio Hikone÷Canton, FIG. 5), in words” value in series [2] (setting [8]) is “non-significant tolerance”. The “response of para-ts1 relative to Canton-S (LC50 ratio, FIG. 7B), in words” value in series [3] is recorded as “non-significant tolerance”. The “response of Rd1 relative to Canton-S (LC50 ratio, FIG. 7A), in words” value in series [4] (in vivo) was “non-significant tolerance”.

For the compound `CCCOC=O` [Propyl Formate, propyl formate], the “LC50 (95% CL)” value in series [1] is given as 1833.0 (1787.0 − 1884.0) μg/jar. In addition, the “Slope ± Std. Error” value came to 7.43 ± 1.26 in series [2] (Table 2, Hikone-R, 24 hr) and 7.43 ± 1.26 in series [2] (setting [7]). In addition, in series [3], the “response of para-ts1 relative to Canton-S (LC50 ratio, FIG. 7B), in words” value is “non-significant tolerance”. Besides, the “response of Rd1 relative to Canton-S (LC50 ratio, FIG. 7A), in words” value in series [4] (in vivo) is “significant resistance”.
